Assays:
[1] = target: CYP2D6 (Homo sapiens, UniProt P10635); test: Inhibition of CYP2D6 in human pooled liver microsomes at 10 uM using dextromethorphan as substrate preincubated for 10 mins followed by NADPH addition and measured after 15 mins by LC/MS/MS analysis relative to control; type: ADME; settings: probe dextromethorphan
[2] = target: Serine/threonine-protein kinase B-raf (Homo sapiens) (UniProt P15056); test: Inhibition of full length GST-tagged human BRAF expressed in baculovirus expression system at 0.5 uM using Ser/Thr 03 as substrate in presence of 100 uM ATP after 1 hr by Z'-LYTE assay relative to control
[3] = system: A549; test: Induction of apoptosis in human A549 cells assessed as early apoptotic cells at 3 uM after 72 hrs by Annexin V-FITC/propidium iodide staining-based flow cytometric analysis (reference value: 2.40%); type: functional
[4] = Metabolic stability in human liver microsomes assessed as compound remaining at 1 uM measured up to 1 hr in presence of NADPH by LC-MS/MS analysis; type: ADME, Microsome; settings: read-out: Stability
[5] = target: Tyrosine-protein kinase BTK (Homo sapiens) (UniProt Q06187); test: Inhibition of recombinant full-legth His-tagged human BTK expressed in baculovirus expression system at 0.5 uM using tyr 01 as substrate in presence of ATP at Km concentration after 1 hr by Z'-LYTE assay relative to control
[6] = target: Serine/threonine-protein kinase Chk1 (Homo sapiens) (UniProt O14757); test: Inhibition of recombinant full-legth His-tagged human CHK1 expressed in baculovirus expression system at 0.5 uM using Ser/Thr 19 as substrate in presence of ATP at Km concentration after 1 hr by Z'-LYTE assay relative to control
[7] = target: CYP2C9 (Homo sapiens, UniProt P11712); test: Inhibition of CYP2C9 in human pooled liver microsomes at 10 uM using diclofenac as substrate preincubated for 10 mins followed by NADPH addition and measured after 15 mins by LC/MS/MS analysis relative to control; type: ADME; settings: probe diclofenac
[8] = target: Focal adhesion kinase 1 (Homo sapiens, UniProt Q05397); test: Inhibition of recombinant full length GST-tagged human FAK cytoplasmic domain expressed in baculovirus expression system at 0.5 uM using tyr 07 as substrate in presence of ATP at Km concentration after 1 hr by Z'-LYTE assay relative to control
[9] = target: Proto-oncogene tyrosine-protein kinase receptor Ret (Homo sapiens) (UniProt P07949); test: Inhibition of recombinant GST-tagged human RET (658 to 1114 residues) expressed in baculovirus expression system at 0.5 uM using tyr 02 as substrate in presence of ATP at Km concentration after 1 hr by Z'-LYTE assay relative to control
[10] = system: A549; test: Induction of apoptosis in human A549 cells after 72 hrs by Annexin V-FITC/propidium iodide staining-based flow cytometric analysis; type: functional, cell-based
[11] = system: A549; test: Induction of apoptosis in human A549 cells assessed as necrotic cells at 1 uM after 72 hrs by Annexin V-FITC/propidium iodide staining-based flow cytometric analysis (reference value: 1.70%); type: functional
[12] = target: ALK tyrosine kinase receptor (Homo sapiens) (UniProt Q9UM73); test: Inhibition of recombinant human GST-tagged ALK (1058 to 1620 residues) expressed in baculovirus at 0.5 uM using tyr 01 as substrate as substrate in presence of ATP at Km concentration after 1 hr by Z'-LYTE assay relative to control
[13] = Metabolic stability in mouse liver microsomes assessed as compound remaining at 1 uM measured up to 1 hr in absence of NADPH by LC-MS/MS analysis; type: ADME, Microsome; settings: read-out: Stability
[14] = system: A549; test: Induction of apoptosis in human A549 cells assessed as necrotic cells at 9 uM after 72 hrs by Annexin V-FITC/propidium iodide staining-based flow cytometric analysis (reference value: 1.70%); type: functional
[15] = target: CYP1A2 (Homo sapiens, UniProt P05177); test: Inhibition of CYP1A2 in human pooled liver microsomes at 10 uM using phenacetin as substrate preincubated for 10 mins followed by NADPH addition and measured after 15 mins by LC/MS/MS analysis relative to control; type: ADME; settings: probe phenacetin
[16] = target: Macrophage colony-stimulating factor 1 receptor (Homo sapiens) (UniProt P07333); test: Inhibition of recombinant His-tagged human CSF1R cytoplasmic domain expressed in baculovirus expression system at 0.5 uM using tyr 01 as substrate in presence of ATP at Km concentration after 1 hr by Z'-LYTE assay relative to control
[17] = target: Serine/threonine-protein kinase TBK1 (Homo sapiens) (UniProt Q9UHD2); test: Inhibition of recombinant full length GST-tagged human TBK1 expressed in insect cells at 0.5 uM using Ser/Thr 05 as substrate in presence of ATP at Km concentration after 1 hr by Z'-LYTE assay relative to control
[18] = Intrinsic clearance in mouse liver at 1 uM measured up to 1 hr in presence of NADPH by LC-MS/MS analysis; type: ADME, tissue-based
[19] = system: A549; test: Antimetastatic activity against human A549 cells assessed as reduction in number of cell migration after 72 hrs by crystal violet staining based transwell assay; type: functional
[20] = target: Serine/threonine-protein kinase PLK1 (Homo sapiens) (UniProt P53350); test: Inhibition of recombinant full length His-tagged human PLK1 expressed in baculovirus expression system at 0.5 uM using Ser/Thr 16 as substrate in presence of ATP at Km concentration after 1 hr by Z'-LYTE assay relative to control
[21] = system: A549; test: Induction of apoptosis in human A549 cells assessed as early apoptotic cells at 1 uM after 72 hrs by Annexin V-FITC/propidium iodide staining-based flow cytometric analysis (reference value: 2.40%); type: functional
[22] = system: A549; test: Induction of apoptosis in human A549 cells assessed as necrotic cells at 3 uM after 72 hrs by Annexin V-FITC/propidium iodide staining-based flow cytometric analysis (reference value: 1.70%); type: functional
[23] = target: CYP3A4 (Homo sapiens, UniProt P08684); test: Inhibition of CYP3A4 in human pooled liver microsomes at 10 uM using midazolam as substrate preincubated for 10 mins followed by NADPH addition and measured after 15 mins by LC/MS/MS analysis relative to control; type: ADME; settings: probe midazolam
[24] = system: A549; test: Induction of apoptosis in human A549 cells assessed as viable cells at 1 uM after 72 hrs by Annexin V-FITC/propidium iodide staining-based flow cytometric analysis (reference value: 94.66%); type: functional; settings: A549, 72 h, read-out: Activity
[25] = target: Fibroblast growth factor receptor 1 (Homo sapiens) (UniProt P11362); test: Inhibition of recombinant His-tagged human FGFR1 (308 to 731 resides) expressed in baculovirus expression system at 0.5 uM using tyr 04 as substrate in presence of ATP at Km concentration after 1 hr by Z'-LYTE assay relative to control
[26] = Intrinsic clearance in mouse liver microsomes at 1 uM measured up to 1 hr in presence of NADPH by LC-MS/MS analysis; type: ADME, Microsome; settings: read-out: CLH

Sequence of Macrophage colony-stimulating factor 1 receptor (Homo sapiens) (P07333 whole entry, the tested form may be a part): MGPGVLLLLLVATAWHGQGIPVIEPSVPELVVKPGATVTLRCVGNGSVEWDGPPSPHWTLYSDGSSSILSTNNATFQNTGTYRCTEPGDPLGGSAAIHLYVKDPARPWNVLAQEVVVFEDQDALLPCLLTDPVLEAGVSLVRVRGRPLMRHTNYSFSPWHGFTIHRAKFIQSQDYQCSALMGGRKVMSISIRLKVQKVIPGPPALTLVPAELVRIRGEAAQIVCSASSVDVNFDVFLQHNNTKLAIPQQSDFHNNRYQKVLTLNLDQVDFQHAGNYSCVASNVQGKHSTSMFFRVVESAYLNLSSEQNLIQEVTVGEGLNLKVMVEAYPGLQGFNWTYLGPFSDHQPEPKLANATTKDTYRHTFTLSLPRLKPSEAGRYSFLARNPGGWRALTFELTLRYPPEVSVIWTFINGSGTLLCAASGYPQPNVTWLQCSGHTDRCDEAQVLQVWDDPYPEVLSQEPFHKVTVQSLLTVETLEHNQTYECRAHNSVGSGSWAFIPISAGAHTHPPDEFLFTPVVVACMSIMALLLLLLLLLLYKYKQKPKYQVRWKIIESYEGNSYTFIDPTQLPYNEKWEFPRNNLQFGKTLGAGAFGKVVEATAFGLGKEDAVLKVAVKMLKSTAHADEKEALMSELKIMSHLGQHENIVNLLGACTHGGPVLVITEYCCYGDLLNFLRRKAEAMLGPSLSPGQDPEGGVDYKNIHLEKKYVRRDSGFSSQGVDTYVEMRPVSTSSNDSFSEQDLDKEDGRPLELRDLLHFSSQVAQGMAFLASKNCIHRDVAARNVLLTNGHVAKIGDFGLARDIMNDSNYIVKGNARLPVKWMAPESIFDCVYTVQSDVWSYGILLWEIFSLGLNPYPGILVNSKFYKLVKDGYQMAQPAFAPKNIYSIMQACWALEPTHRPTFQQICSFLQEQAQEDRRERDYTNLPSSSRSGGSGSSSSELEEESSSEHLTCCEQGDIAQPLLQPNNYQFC
Sequence of Proto-oncogene tyrosine-protein kinase receptor Ret (Homo sapiens) (P07949 whole entry, the tested form may be a part): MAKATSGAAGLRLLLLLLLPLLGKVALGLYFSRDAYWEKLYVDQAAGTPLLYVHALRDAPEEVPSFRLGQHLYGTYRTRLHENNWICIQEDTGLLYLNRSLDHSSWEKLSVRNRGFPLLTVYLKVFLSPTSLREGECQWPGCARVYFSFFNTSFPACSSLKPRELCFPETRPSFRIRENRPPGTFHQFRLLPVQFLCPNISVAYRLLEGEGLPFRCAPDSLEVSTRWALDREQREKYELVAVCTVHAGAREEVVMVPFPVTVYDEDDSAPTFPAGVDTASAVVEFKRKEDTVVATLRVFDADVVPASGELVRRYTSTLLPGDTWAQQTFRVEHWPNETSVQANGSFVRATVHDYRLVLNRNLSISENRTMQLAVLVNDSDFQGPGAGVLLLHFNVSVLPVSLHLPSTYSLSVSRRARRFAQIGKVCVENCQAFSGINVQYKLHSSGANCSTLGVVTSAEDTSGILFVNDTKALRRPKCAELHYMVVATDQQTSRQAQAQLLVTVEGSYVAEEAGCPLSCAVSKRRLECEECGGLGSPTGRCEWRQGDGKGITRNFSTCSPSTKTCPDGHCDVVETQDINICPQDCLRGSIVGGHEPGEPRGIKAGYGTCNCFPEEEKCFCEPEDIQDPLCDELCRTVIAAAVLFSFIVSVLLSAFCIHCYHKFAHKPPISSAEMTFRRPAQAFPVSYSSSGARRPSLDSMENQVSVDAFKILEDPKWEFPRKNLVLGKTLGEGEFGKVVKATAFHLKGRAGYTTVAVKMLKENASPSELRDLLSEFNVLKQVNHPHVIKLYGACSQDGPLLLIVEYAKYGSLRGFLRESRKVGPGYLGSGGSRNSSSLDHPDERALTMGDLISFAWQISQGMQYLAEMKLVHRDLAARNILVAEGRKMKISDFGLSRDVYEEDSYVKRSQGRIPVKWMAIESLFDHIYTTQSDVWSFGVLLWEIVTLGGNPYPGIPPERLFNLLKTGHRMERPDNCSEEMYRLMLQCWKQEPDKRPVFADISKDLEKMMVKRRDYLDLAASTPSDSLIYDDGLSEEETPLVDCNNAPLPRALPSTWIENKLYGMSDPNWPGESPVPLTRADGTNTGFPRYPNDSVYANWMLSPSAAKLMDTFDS
Sequence of Focal adhesion kinase 1 (Q05397 2-1052 limits assumed): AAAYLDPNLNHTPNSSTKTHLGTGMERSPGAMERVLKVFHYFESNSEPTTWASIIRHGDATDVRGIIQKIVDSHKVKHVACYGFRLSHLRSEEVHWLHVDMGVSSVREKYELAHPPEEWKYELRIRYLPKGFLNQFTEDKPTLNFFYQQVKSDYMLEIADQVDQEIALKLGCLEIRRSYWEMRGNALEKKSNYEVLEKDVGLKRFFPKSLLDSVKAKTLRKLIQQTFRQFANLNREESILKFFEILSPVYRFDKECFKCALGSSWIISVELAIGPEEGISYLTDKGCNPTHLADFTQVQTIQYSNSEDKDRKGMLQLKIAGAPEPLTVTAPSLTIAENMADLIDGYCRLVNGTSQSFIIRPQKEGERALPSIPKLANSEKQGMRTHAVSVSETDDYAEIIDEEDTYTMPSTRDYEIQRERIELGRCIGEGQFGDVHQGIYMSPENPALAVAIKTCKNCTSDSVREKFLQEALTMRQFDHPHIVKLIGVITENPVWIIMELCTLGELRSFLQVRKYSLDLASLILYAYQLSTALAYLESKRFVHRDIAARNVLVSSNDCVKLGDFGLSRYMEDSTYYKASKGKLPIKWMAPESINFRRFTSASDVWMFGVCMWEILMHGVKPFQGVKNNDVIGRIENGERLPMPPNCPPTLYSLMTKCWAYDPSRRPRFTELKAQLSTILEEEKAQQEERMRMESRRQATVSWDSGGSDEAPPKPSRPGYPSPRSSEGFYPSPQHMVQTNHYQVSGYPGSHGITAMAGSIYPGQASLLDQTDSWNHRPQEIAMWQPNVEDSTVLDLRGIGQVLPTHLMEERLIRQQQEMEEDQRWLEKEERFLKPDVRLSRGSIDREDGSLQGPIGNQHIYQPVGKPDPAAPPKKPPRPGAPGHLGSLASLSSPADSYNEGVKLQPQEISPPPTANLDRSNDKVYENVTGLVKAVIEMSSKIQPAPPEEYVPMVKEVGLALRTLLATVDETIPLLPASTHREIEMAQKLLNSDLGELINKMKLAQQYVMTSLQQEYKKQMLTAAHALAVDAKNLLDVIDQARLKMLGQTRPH
Sequence of CYP1A2 (P05177 whole entry, the tested form may be a part): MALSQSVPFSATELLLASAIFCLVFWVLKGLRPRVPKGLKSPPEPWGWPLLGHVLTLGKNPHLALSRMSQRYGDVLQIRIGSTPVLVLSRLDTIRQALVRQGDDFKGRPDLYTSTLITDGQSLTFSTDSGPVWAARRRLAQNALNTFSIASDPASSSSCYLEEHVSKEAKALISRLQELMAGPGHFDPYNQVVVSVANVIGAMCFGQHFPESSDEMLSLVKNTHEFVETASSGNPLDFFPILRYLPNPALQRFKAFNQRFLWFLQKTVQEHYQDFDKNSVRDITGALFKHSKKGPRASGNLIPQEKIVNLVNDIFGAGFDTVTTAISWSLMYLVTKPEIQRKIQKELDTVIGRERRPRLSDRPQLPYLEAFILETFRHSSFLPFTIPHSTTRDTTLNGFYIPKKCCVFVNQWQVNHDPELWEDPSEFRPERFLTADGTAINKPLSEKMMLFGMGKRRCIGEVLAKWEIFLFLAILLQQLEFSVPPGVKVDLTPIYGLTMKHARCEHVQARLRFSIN
Sequence of Serine/threonine-protein kinase TBK1 (Homo sapiens) (Q9UHD2 whole entry): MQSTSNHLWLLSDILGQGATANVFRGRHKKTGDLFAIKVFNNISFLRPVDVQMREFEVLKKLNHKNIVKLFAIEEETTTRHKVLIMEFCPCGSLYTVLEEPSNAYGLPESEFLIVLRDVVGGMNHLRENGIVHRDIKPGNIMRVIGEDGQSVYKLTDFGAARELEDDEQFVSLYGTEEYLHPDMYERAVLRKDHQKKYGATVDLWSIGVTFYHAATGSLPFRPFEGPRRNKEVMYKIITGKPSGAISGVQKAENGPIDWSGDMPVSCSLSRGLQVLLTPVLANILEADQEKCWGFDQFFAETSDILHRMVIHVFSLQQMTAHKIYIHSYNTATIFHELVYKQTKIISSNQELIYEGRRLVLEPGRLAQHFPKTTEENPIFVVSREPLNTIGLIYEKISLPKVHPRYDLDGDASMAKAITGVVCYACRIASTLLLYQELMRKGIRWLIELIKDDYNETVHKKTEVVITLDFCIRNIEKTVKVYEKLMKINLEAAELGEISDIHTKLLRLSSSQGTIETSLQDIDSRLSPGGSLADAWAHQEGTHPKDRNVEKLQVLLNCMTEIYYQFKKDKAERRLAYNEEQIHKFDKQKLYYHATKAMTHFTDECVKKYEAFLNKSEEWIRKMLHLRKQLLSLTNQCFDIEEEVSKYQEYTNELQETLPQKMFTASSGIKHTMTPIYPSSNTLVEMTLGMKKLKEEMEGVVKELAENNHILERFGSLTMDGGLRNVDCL
Sequence of Serine/threonine-protein kinase PLK1 (Homo sapiens) (P53350 whole entry): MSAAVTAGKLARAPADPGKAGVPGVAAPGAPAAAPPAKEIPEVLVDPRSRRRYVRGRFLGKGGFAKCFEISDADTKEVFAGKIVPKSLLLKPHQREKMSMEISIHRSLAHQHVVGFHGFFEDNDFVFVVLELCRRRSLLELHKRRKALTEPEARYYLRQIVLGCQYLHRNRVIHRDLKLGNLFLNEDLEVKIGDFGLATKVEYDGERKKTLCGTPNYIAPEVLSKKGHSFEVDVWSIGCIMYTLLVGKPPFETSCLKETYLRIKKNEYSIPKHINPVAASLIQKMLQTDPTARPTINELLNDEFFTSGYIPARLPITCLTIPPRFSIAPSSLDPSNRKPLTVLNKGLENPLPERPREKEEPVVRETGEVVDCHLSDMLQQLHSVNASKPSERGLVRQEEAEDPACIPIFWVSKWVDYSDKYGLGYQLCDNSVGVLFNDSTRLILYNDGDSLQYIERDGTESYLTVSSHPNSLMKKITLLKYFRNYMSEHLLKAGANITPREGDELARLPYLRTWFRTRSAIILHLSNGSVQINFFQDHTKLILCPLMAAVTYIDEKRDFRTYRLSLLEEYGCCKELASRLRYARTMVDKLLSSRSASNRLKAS

SMILES: COc1cc(C(=O)NC2CCNCC2)ccc1Nc1nc(Nc2ccccc2P(C)(C)=O)c2cc[nH]c2n1
- inhibition at 0.25 h, 10 µM [1]: 10.7%
- inhibition [2]: 3%
- Activity [3]: 17.3%
- remaining at 1 h, 1 µM [4]: 67.9%
- inhibition [5]: 0%
- inhibition [6]: 3%
- inhibition at 0.25 h, 10 µM [7]: 11.5%
- inhibition [8]: 100%
- inhibition [9]: 10%
- Activity [10]: Dose-dependent effect
- Activity [11]: 6.37%
- inhibition [12]: 98%
- remaining at 1 h, 1 µM [13]: 78%
- Activity [14]: 4.15%
- inhibition at 0.25 h, 10 µM [15]: 1.5%
- inhibition [16]: 12%
- inhibition [17]: 23%
- CLH [18]: 39.9 mL/min/kg
- Activity [19]: Dose-dependent effect
- inhibition [20]: 43%
- Activity [21]: 13.27%
- Activity [22]: 4.72%
- inhibition at 0.25 h, 10 µM [23]: 10.5%
- viability at 1 µM [24]: 70.7%
- inhibition [25]: 6%
- microsomal CLint at 1 µM [26]: 10.1 µL/min/mg
